Tested on: pre-cultured PBMCs (NSP12-specific T cells)
Test: IFN-γ ELISpot with single 15-mer peptides after 11–13 days in vitro peptide-pool T-cell expansion
Format: cell-based, human
Conditions: for peptide-specific response, donor HH-N12-18, post COVID-19 / peptide-specific response, donor HH-N12-18, pre COVID-19 / peptide-specific response, donor HH-N12-34, post COVID-19 / peptide-specific response, donor HH-N12-34, pre COVID-19 / peptide-specific response, donor HH-N12-35, post COVID-19 / peptide-specific response, donor HH-N12-35, pre COVID-19 / peptide-specific response, donor HH-N12-36, post COVID-19 / peptide-specific response, donor HH-N12-36, pre COVID-19 / peptide-specific response, donor HH-N12-37, post COVID-19 / peptide-specific response, donor HH-N12-37, pre COVID-19: single NSP12 15-mer peptides
[1] = donor HH-N12-18, sample post COVID-19
[2] = donor HH-N12-18, sample pre COVID-19
[3] = donor HH-N12-34, sample post COVID-19
[4] = donor HH-N12-34, sample pre COVID-19
[5] = donor HH-N12-35, sample post COVID-19
[6] = donor HH-N12-35, sample pre COVID-19
[7] = donor HH-N12-36, sample post COVID-19
[8] = donor HH-N12-36, sample pre COVID-19
[9] = donor HH-N12-37, sample post COVID-19
[10] = donor HH-N12-37, sample pre COVID-19

Substance	peptide-specific response, donor HH-N12-18, post COVID-19 [1]	peptide-specific response, donor HH-N12-18, pre COVID-19 [2]	peptide-specific response, donor HH-N12-34, post COVID-19 [3]	peptide-specific response, donor HH-N12-34, pre COVID-19 [4]	peptide-specific response, donor HH-N12-35, post COVID-19 [5]	peptide-specific response, donor HH-N12-35, pre COVID-19 [6]	peptide-specific response, donor HH-N12-36, post COVID-19 [7]	peptide-specific response, donor HH-N12-36, pre COVID-19 [8]	peptide-specific response, donor HH-N12-37, post COVID-19 [9]	peptide-specific response, donor HH-N12-37, pre COVID-19 [10]	peptide-specific T-cell response, donor HH-N12-18, post COVID-19 (donor HH-N12-18, sample post COVID-19, single NSP12 15-mer peptide, 0 = no response)	peptide-specific T-cell response, donor HH-N12-18, pre COVID-19 (donor HH-N12-18, sample pre COVID-19, single NSP12 15-mer peptide, 0 = no response)	peptide-specific T-cell response, donor HH-N12-34, post COVID-19 (donor HH-N12-34, sample post COVID-19, single NSP12 15-mer peptide, 0 = no response)	peptide-specific T-cell response, donor HH-N12-34, pre COVID-19 (donor HH-N12-34, sample pre COVID-19, single NSP12 15-mer peptide, 0 = no response)	peptide-specific T-cell response, donor HH-N12-35, post COVID-19 (donor HH-N12-35, sample post COVID-19, single NSP12 15-mer peptide, 0 = no response)	peptide-specific T-cell response, donor HH-N12-35, pre COVID-19 (donor HH-N12-35, sample pre COVID-19, single NSP12 15-mer peptide, 0 = no response)	peptide-specific T-cell response, donor HH-N12-36, post COVID-19 (donor HH-N12-36, sample post COVID-19, single NSP12 15-mer peptide, 0 = no response)	peptide-specific T-cell response, donor HH-N12-36, pre COVID-19 (donor HH-N12-36, sample pre COVID-19, single NSP12 15-mer peptide, 0 = no response)	peptide-specific T-cell response, donor HH-N12-37, post COVID-19 (donor HH-N12-37, sample post COVID-19, single NSP12 15-mer peptide, 0 = no response)	peptide-specific T-cell response, donor HH-N12-37, pre COVID-19 (donor HH-N12-37, sample pre COVID-19, single NSP12 15-mer peptide, 0 = no response)
PNCVNCLDDRCILHC [compound 60]	0	0	0	0	0	0	0.022	0	0	0	–	–	–	–	–	–	–	–	–	–
Peptide 110: 15-mer peptide of SARS-CoV-2 NSP12, aa 546-560	0	0	0.023	0	0	0	0	0	0	0	–	–	–	–	–	–	–	–	–	–
QFCDAMRNAGIVGVL [compound 39]	0	0	0	0	0	0	0	0	0	0	–	–	–	–	–	–	–	–	–	–
QHEETIYNLLKDCPA [compound 17]	0	0	0	0	0	0	0	0	0.021	0	–	–	–	–	–	–	–	–	–	–
RIMASLVLARKHTTC [compound 127]	0	0.031	0	0	0	0.074	0	0	0	0.051	–	–	–	–	–	–	–	–	–	–
RLYECLYRNRDVDTD [compound 146]	0	0	0.023	0	0	0	0	0	0	0.02	–	–	–	–	–	–	–	–	–	–
SADAQSFLNRVCGVS [compound 1]	0	0	0	0	0	0	0.037	0	0	0	–	–	–	–	–	–	–	–	–	–
SFLNRVCGVSAARLT [compound 2]	0	0	0	0	0	0	0	0	0	0	–	–	–	–	–	–	–	–	–	–
TEERLKLFDRYFKYW [compound 56]	0	0	0	0	0	0.04	0.022	0	0	0	–	–	–	–	–	–	–	–	–	–
TFSNYQHEETIYNLL [compound 16]	0	0	0	0	0	0	0	0	0	0	–	–	–	–	–	–	–	–	–	–
TNCCRFQEKDEDDNL [compound 11]	0	0.035	0	0	0	0	0	0	0	0	–	–	–	–	–	–	–	–	–	–
TPGSGVPVVDSYYSL [compound 46]	0	0	0	0	0	0	0	0	0	0	–	–	–	–	–	–	–	–	–	–
TSTDVVYRAFDIYND [compound 6]	0	0	0	0	0	0	0	0	0	0	–	–	–	–	–	–	–	–	–	–
VAKHDFFKFRIDGDM [compound 20]	0	0	0	0	0	0	0	0	0	0	–	–	–	–	–	–	–	–	–	–
VASIKNFKSVLYYQN [compound 156]	–	–	–	–	–	–	–	–	–	–	0	0	0.025	0	0	0	0	0	0	0
VPVVDSYYSLLMPIL [compound 47]	0.082	0	0	0	0.02	0	0	0	0	0	–	–	–	–	–	–	–	–	–	–
VVKRHTFSNYQHEET [compound 15]	0	0	0	0	0	0	0	0	0	0	–	–	–	–	–	–	–	–	–	–

— publication PMC10196118, “Evidence for broad cross-reactivity of the SARS-CoV-2 NSP12-directed CD4^+ T-cell response with pre-primed responses directed against common cold coronaviruses” (Frontiers in Immunology, 2023)
